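Interpolation was linear, between the two tested concentrations surrounding the appropriate level; five concentrations were tested over 48 hours in 96-well plates. GI50 marks 50% less growth. TGI marks complete inhibition of growth.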
Key:
Assay in all cases: inhibition of tumour cell growth, NCI panel, 48 h
MDA-MB-435 = tested on: MDA-MB-435
HS 578T breast = tested on: HS 578T breast
OVCAR-3 ovarian = tested on: OVCAR-3 ovarian
NCI/ADR-RES ovarian = tested on: NCI/ADR-RES ovarian
KM20L2 colon = tested on: KM20L2 colon
XF 498 CNS = tested on: XF 498 CNS
M19-MEL melanoma = tested on: M19-MEL melanoma
SN12C renal = tested on: SN12C renal
SNB-78 CNS = tested on: SNB-78 CNS
HCT-116 colon = tested on: HCT-116 colon
NCI-H522 lung = tested on: NCI-H522 lung
A549 NSCLC = tested on: A549 NSCLC
DMS 273 small cell lung = tested on: DMS 273 small cell lung
MDA-MB-231 breast = tested on: MDA-MB-231 breast
MALME-3M melanoma = tested on: MALME-3M melanoma

`CC(=O)O[C@@H]1CN(S(=O)(=O)c2ccc(C)cc2)C[C@@H]1C1CCCCC1` showed a TGI (MDA-MB-435) of 44.6 µM, a TGI (HS 578T breast) of 23.7 µM and a TGI (OVCAR-3 ovarian) of 28.2 µM. The TGI (NCI/ADR-RES ovarian) was 53.3 µM.
With `CC1CC(c2ccc([N+](=O)[O-])cc2)=Nc2ccccc2S1=O` (configuration not stated) the TGI (KM20L2 colon) was 29.9 µM, the TGI (XF 498 CNS) was 95.1 µM and the TGI (M19-MEL melanoma) was 30.8 µM. The TGI (SN12C renal) was > 100 µM, the TGI (SNB-78 CNS) was > 100 µM and the TGI (HCT-116 colon) was 4.72 µM. The TGI (NCI-H522 lung) was 25.9 µM, the TGI (A549 NSCLC) was 41.4 µM and the TGI (DMS 273 small cell lung) was 42.7 µM.
In the case of `CC(CNc1nc(Nc2ccc(Cl)c(Cl)c2)nc(C(Cl)(Cl)Cl)n1)N(C)C` (configuration not stated), the GI50 (MDA-MB-231 breast) is reported as 0.307 µM, the TGI (MDA-MB-231 breast) is reported as 1.42 µM and the GI50 (MALME-3M melanoma) is reported as 1.79 µM. For the same molecule, the TGI (MALME-3M melanoma) was 3.79 µM.

From PubChem BioAssay (NCI)
